Test results published in US20030162661A1, “2,4-Diamino-1,3,5-triazines, their preparation, and their use as herbicides and plant growth regulators” (priority 1998, published 2003).

Columns and labels:
Format in all cases: in vivo
[1] = test system: harmful plants which are typical for rice cultivation, such as Cyperus monti, Echinochloa crus-galli and Sagittaria pygmaea; assay: Effect on harmful plants in rice (paddy rice conditions, visual scoring); conditions: applied into the flooding water, various dosages, scored visually approximately three weeks after application
Experimental: 3. Effect on Harmful Plants in Rice
Transplanted and seeded rice and typical broad-leaved and monocotyledonous rice weeds are grown in the greenhouse to the three-leaf stage (Echinochloa crus- galli 1.5 leaf) under paddy rice conditions (depth of the water: 2-3 cm) in sealed plastic pots. They are then treated with the compounds according to the invention. To this end, the formulated active substances are suspended, dissolved or emulsified in water and applied in various dosages by pouring into the water with which the test plants are flooded. After this treatment, the test plants are placed in the greenhouse under ideal growth conditions and kept thus over the entire experimental period.
Approximately three weeks after application, the test is evalued by means of visually scoring the damage to the plants by comparison with untreated controls.

[2] = test system: harmful plants such as Stellaria media, Lolium multiflorum, Amaranthus retroflexus, Sinapis alba, Avena sativa and Setaria viridis; assay: Pre-emergence effect on weeds (greenhouse pot test, visual scoring); conditions: applied pre-emergence at an application rate of 1 kg or less of active substance per hectare; scored visually after 3 to 4 weeks vs untreated controls
Description: 1 Pre-emergence Effect on Weeds
Seeds or rhizome pieces of monocotyledonous and dicotyledonous weeds plants are placed in sandy loam soil in plastic pots and covered with soil. The compounds according to the invention which are formulated in the form of wettable powders or emulsion concentrates are then applied to the surface of the soil cover in the form of an aqueous suspension or emulsion at an application rate of 600 to 800 l of water/ha (converted), in various dosages.

[3] = test system: harmful plants such as Sinapis alba, Echinochloa crus- galli, Lolium multiflorum, Stellaria media, Cyperus iria, Amaranthus retroflexus, Setaria viridis and …; assay: Post-emergence effect on weeds (greenhouse pot test, visual scoring); conditions: applied post-emergence (three-leaf stage) at an application rate of 1 kg and less of active substance per hectare; scored visually after about 3 to 4 weeks vs untreated controls
Experimental: 2. Post-emergence Effect on Weeds
Seeds or rhizome pieces of monocotyledonous and dicotyledonous weeds are placed in sandy loam soil in plastic pots, covered with soil and grown in the greenhouse under good growth conditions. Three weeks after sowing, the test plants are treated in the three-leaf stage. The compounds according to the invention which are formulated as wettable powders or as emulsion concentrates are sprayed in various dosages on the green parts of the plants at an application rate of 600 to 800 l of water/ha (converted). After the test plants have remained in the greenhouse for about 3 to 4 weeks under ideal growth conditions, the effect of the preparations is scored visually by comparison with untreated controls. The agents according to the invention also have a good herbicidal post-emergence action against a broad range of economically important grass weeds and dicotyledonous weeds.

Compound | herbicidal action against harmful plants typical for rice cultivation [1] | herbicidal action against harmful plants, pre-emergence [2] | herbicidal action against harmful plants, post-emergence [3]
CC(C)c1nc(N)nc(NC(CCc2ccccc2)C2CCC2)n1 (stereo not shown) [Example 4-1] | good herbicidal action | very good herbicidal action | very good herbicidal action
CC(C)(F)c1nc(N)nc(NC(CCc2ccccc2)C2CCC2)n1 (stereo not shown) [Example 4-2, 2-Amino-4-(1-fluoro-1-methylethyl)-6-(3-phenyl-1-cyclobutyl-1-propylamino)-1,3,5-triazine] | good herbicidal action | very good herbicidal action | very good herbicidal action
Cc1cccc(CCC(Nc2nc(N)nc(C(C)C)n2)C2CCC2)c1 (stereo not shown) [Example 4-14] | good herbicidal action | very good herbicidal action | very good herbicidal action
CC(C)(F)c1nc(N)nc(NC(CCCc2cccc(F)c2)C2CC2)n1 (stereo not shown) [Example 22-24] |  | very good herbicidal action | very good herbicidal action
CC(C)c1nc(N)nc(NC(CCCc2cccc(F)c2)C2CC2)n1 (stereo not shown) [Example 22-25] |  | very good herbicidal action | very good herbicidal action
Cc1cccc(CCCC(Nc2nc(N)nc(C(C)C)n2)C2CC2)c1 (stereo not shown) [Example 22-26] |  | very good herbicidal action | very good herbicidal action
Cc1cccc(CCCC(Nc2nc(N)nc(C(C)(C)F)n2)C2CC2)c1 (stereo not shown) [Example 22-27] |  | very good herbicidal action | very good herbicidal action
Cc1cc(C)cc(CCCC(Nc2nc(N)nc(C(C)(C)F)n2)C2CC2)c1 (stereo not shown) [Example 22-28, 2-Amino-4-(1-fluoro-1-methylethyl)-6-[4-(3,5-dimethylphenyl)-1-cyclopropyl-1-butylamino]-1,3,5-triazine] |  | very good herbicidal action | very good herbicidal action
COc1cccc(CCCC(Nc2nc(N)nc(C(C)C)n2)C2CC2)c1 (stereo not shown) [Example 22-29] |  | very good herbicidal action | very good herbicidal action
COc1cccc(CCCC(Nc2nc(N)nc(C(C)(C)F)n2)C2CC2)c1 (stereo not shown) [Example 22-30] |  | very good herbicidal action | very good herbicidal action
CC(C)c1nc(N)nc(NC(CCCc2ccccc2)C2CCC2)n1 (stereo not shown) [Example 28-4] |  | very good herbicidal action | very good herbicidal action
CC(C)Cc1nc(N)nc(NC(CCCc2ccccc2)C2CCC2)n1 (stereo not shown) [Example 28-5] |  | very good herbicidal action | very good herbicidal action
CC(C)(F)c1nc(N)nc(NC(CCCc2ccccc2)C2CCC2)n1 (stereo not shown) [Example 28-10] |  | very good herbicidal action | very good herbicidal action
CC(C)c1nc(N)nc(NC(CCCc2cccc(Cl)c2)C2CCC2)n1 (stereo not shown) [Example 28-13] |  | very good herbicidal action | very good herbicidal action
CC(C)(F)c1nc(N)nc(NC(CCCc2cccc(Cl)c2)C2CCC2)n1 (stereo not shown) [Example 28-14] |  | very good herbicidal action | very good herbicidal action
Cc1cccc(CCCC(Nc2nc(N)nc(C(C)C)n2)C2CCC2)c1 (stereo not shown) [Example 28-17] |  | very good herbicidal action | very good herbicidal action
COc1cccc(CCCC(Nc2nc(N)nc(C(C)C)n2)C2CCC2)c1 (stereo not shown) [Example 28-20] |  | very good herbicidal action | very good herbicidal action
COc1cccc(CCCC(Nc2nc(N)nc(C(C)(C)F)n2)C2CCC2)c1 (stereo not shown) [Example 28-21] |  | very good herbicidal action | very good herbicidal action

Compound | herbicidal action against harmful plants typical for rice cultivation [1] | herbicidal action against harmful plants, pre-emergence [2] | herbicidal action against harmful plants, post-emergence [3]
CC(C)c1nc(N)nc(NC(CCCCc2ccccc2)C2CC2)n1 (stereo not shown) [Example 30-1] |  | very good herbicidal action | very good herbicidal action
CC(C)(F)c1nc(N)nc(NC(CCCCc2ccccc2)C2CC2)n1 (stereo not shown) [Example 30-2] |  | very good herbicidal action | very good herbicidal action
CC(C)(F)c1nc(N)nc(NC(CCCCc2ccccc2)C2CCC2)n1 (stereo not shown) [Example 31-1] |  | very good herbicidal action | very good herbicidal action
Nc1nc(NC(CCCCc2ccccc2)C2CCC2)nc(C(F)(F)F)n1 (stereo not shown) [Example 31-2] |  | very good herbicidal action | very good herbicidal action
CC(C)c1nc(N)nc(NC(CCCCc2ccccc2)C2CCC2)n1 (stereo not shown) [Example 31-3] |  | very good herbicidal action | very good herbicidal action
CC(C)c1nc(N)nc(NC(CCc2ccccc2)CC2CC2)n1 (stereo not shown) [Example 32-1] |  | very good herbicidal action | very good herbicidal action
CC(C)(F)c1nc(N)nc(NC(CCc2ccccc2)CC2CC2)n1 (stereo not shown) [Example 32-2] |  | very good herbicidal action | very good herbicidal action
CC(C)c1nc(N)nc(NC(CCc2cccc(Cl)c2)CC2CC2)n1 (stereo not shown) [Example 32-5] |  | very good herbicidal action | very good herbicidal action
CC(C)(F)c1nc(N)nc(NC(CCc2cccc(Cl)c2)CC2CC2)n1 (stereo not shown) [Example 32-6] |  | very good herbicidal action | very good herbicidal action
Cc1cccc(CCC(CC2CC2)Nc2nc(N)nc(C(C)C)n2)c1 (stereo not shown) [Example 32-9] |  | very good herbicidal action | very good herbicidal action
Cc1cccc(CCC(CC2CC2)Nc2nc(N)nc(C(C)(C)F)n2)c1 (stereo not shown) [Example 32-10] |  | very good herbicidal action | very good herbicidal action
COc1cccc(CCC(CC2CC2)Nc2nc(N)nc(C(C)C)n2)c1 (stereo not shown) [Example 32-11] |  | very good herbicidal action | very good herbicidal action
COc1cccc(CCC(CC2CC2)Nc2nc(N)nc(C(C)(C)F)n2)c1 (stereo not shown) [Example 32-12] |  | very good herbicidal action | very good herbicidal action
CC(C)(F)c1nc(N)nc(NC(CCc2ccccc2)CC2CC2(F)F)n1 (stereo not shown) [Example 33-2] |  | very good herbicidal action | very good herbicidal action
CCc1nc(N)nc(NC(CCc2ccccc2)CC2CC2(F)F)n1 (stereo not shown) [Example 33-4] |  | very good herbicidal action | very good herbicidal action
CC(C)(F)c1nc(N)nc(NC(C=Cc2ccccc2)C2CC2)n1 (stereo not shown) [Example 44-1] |  | very good herbicidal action | very good herbicidal action
CC(C)c1nc(N)nc(NC(C=Cc2ccccc2)C2CC2)n1 (stereo not shown) [Example 44-2] |  | very good herbicidal action | very good herbicidal action
